Measured values reported in ChEMBL document CHEMBL1133808, “The discovery of sulfonylated dipeptides as potent VLA-4 antagonists” (Bioorg Med Chem Lett, 2001).
pIC50: −log10 of the molar value.

Biological target: Integrin alpha-4/beta-1 (Homo sapiens, UniProt P05556+P13612)
Assay: Antagonistic activity against VLA-4 integrin of human jurkat cells using [125I]VCAM-Ig as radioligand
Type: functional, cell-based

Chain of Integrin alpha-4/beta-1 (P05556 whole entry): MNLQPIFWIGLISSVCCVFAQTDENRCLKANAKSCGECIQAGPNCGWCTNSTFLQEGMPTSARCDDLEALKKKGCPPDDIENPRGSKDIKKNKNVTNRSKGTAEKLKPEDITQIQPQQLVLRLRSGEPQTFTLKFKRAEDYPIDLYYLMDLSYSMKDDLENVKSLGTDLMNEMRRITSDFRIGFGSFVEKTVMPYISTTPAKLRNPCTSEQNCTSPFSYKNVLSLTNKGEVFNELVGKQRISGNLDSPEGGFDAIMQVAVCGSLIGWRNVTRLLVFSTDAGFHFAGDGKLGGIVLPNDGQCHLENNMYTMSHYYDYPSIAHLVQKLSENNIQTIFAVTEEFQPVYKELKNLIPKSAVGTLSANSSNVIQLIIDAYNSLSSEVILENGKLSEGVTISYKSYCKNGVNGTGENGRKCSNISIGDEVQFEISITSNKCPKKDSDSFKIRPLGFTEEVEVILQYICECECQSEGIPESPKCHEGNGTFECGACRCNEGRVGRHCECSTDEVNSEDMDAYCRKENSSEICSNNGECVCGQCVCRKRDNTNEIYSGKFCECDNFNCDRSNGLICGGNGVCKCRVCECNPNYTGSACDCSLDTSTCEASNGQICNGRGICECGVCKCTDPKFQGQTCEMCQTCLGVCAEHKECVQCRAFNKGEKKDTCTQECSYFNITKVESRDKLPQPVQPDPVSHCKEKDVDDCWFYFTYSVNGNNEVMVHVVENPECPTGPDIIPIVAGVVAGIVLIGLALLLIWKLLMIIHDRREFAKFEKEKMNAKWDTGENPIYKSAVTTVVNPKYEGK
Chain of Integrin alpha-4/beta-1 (P13612 whole entry): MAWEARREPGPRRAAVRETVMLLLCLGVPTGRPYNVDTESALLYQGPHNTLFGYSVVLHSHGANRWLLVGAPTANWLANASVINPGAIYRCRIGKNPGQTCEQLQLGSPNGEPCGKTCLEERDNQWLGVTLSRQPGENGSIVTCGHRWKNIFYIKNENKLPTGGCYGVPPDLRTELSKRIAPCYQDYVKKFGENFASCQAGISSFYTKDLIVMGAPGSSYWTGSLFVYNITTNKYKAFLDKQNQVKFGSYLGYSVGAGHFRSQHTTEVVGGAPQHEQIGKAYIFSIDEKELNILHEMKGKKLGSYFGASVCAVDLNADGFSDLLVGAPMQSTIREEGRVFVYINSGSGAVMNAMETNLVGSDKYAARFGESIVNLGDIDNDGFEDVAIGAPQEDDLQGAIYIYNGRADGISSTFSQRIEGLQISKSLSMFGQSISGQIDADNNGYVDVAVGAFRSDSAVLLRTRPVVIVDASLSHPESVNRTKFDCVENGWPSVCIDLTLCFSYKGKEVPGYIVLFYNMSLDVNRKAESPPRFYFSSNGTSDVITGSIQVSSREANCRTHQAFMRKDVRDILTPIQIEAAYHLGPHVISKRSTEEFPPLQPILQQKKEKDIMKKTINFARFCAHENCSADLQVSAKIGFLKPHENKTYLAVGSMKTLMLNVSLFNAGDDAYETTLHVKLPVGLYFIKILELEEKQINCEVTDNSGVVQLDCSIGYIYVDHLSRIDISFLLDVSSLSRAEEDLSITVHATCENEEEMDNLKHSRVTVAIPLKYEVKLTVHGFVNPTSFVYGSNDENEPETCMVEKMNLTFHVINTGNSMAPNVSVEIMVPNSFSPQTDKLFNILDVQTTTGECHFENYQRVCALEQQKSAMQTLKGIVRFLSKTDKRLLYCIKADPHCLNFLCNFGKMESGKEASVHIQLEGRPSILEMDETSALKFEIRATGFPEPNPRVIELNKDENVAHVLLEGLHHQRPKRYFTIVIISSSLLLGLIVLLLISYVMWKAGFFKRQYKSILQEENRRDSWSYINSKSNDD

SMILES	pIC50
O=Cc1ccc(-c2ccc(C[C@H](NC(=O)[C@@H]3CCCN3S(=O)(=O)c3cc(Cl)cc(Cl)c3)C(=O)O)cc2)cc1	9.42
Cc1ccc(-c2ccc(C[C@H](NC(=O)[C@@H]3CCCN3S(=O)(=O)c3cc(Cl)cc(Cl)c3)C(=O)O)cc2)cc1	8.82
C[C@@]1(C(=O)N[C@@H](Cc2ccc(-c3ncccc3C#N)cc2)C(=O)O)CCCN1S(=O)(=O)c1cc(Cl)cc(Cl)c1	9.85
N#Cc1cccc(-c2ccc(C[C@H](NC(=O)[C@@H]3CCCN3S(=O)(=O)c3cc(Cl)cc(Cl)c3)C(=O)O)cc2)c1	9.41
COc1ccc(S(=O)(=O)N2Cc3ccccc3C[C@H]2C(=O)N[C@@H](Cc2ccc3ccccc3c2)C(=O)O)cc1OC	8.15
CCCC[C@H](NC(=O)[C@@H]1Cc2ccccc2CN1S(=O)(=O)c1cc(Cl)cc(Cl)c1)C(=O)O	8.00
O=C(O)[C@H](Cc1ccc(-c2ccc(F)cc2)cc1)NC(=O)[C@@H]1CCCN1S(=O)(=O)c1cc(Cl)cc(Cl)c1	9.05
COc1ccc(S(=O)(=O)N2Cc3ccccc3C[C@H]2C(=O)N[C@@H](CCCNC(=N)N)C(=O)O)cc1OC	6.44
COC(=O)c1cccc(-c2ccc(C[C@H](NC(=O)[C@@H]3CCCN3S(=O)(=O)c3cc(Cl)cc(Cl)c3)C(=O)O)cc2)c1	9.40
COc1cccc(OC)c1-c1ccc(C[C@H](NC(=O)[C@@H]2CCCN2S(=O)(=O)c2cc(Cl)cc(Cl)c2)C(=O)O)cc1	10.05
O=Cc1cccc(-c2ccc(C[C@H](NC(=O)[C@@H]3CCCN3S(=O)(=O)c3cc(Cl)cc(Cl)c3)C(=O)O)cc2)c1	9.64
CCCC[C@H](NC(=O)[C@@H]1CCCN1S(=O)(=O)c1ccc(OC)c(OC)c1)C(=O)O	7.35

Next, values leading:

pIC50	SMILES
8.84	Cc1ccccc1-c1ccc(C[C@H](NC(=O)[C@@H]2CCCN2S(=O)(=O)c2cc(Cl)cc(Cl)c2)C(=O)O)cc1
9.44	CSc1ccccc1-c1ccc(C[C@H](NC(=O)[C@@H]2CCCN2S(=O)(=O)c2cc(Cl)cc(Cl)c2)C(=O)O)cc1
10.00	CNC(=O)c1ccccc1-c1ccc(C[C@H](NC(=O)[C@@H]2CCCN2S(=O)(=O)c2cc(Cl)cc(Cl)c2)C(=O)O)cc1
10.00	CS(=O)(=O)c1ccccc1-c1ccc(C[C@H](NC(=O)[C@@H]2CCCN2S(=O)(=O)c2cc(Cl)cc(Cl)c2)C(=O)O)cc1
9.89	CN(C)C(=O)c1ccccc1-c1ccc(C[C@H](NC(=O)[C@@H]2CCCN2S(=O)(=O)c2cc(Cl)cc(Cl)c2)C(=O)O)cc1
9.27	O=C(O)c1cccc(-c2ccc(C[C@H](NC(=O)[C@@H]3CCCN3S(=O)(=O)c3cc(Cl)cc(Cl)c3)C(=O)O)cc2)c1
9.20	O=C(O)[C@H](Cc1ccc(-c2ccccc2)cc1)NC(=O)[C@@H]1CCCN1S(=O)(=O)c1cc(Cl)cc(Cl)c1
9.66	O=Cc1ccccc1-c1ccc(C[C@H](NC(=O)[C@@H]2CCCN2S(=O)(=O)c2cc(Cl)cc(Cl)c2)C(=O)O)cc1
9.02	O=C(O)c1ccccc1-c1ccc(C[C@H](NC(=O)[C@@H]2CCCN2S(=O)(=O)c2cc(Cl)cc(Cl)c2)C(=O)O)cc1
9.82	COC(=O)c1ccccc1-c1ccc(C[C@H](NC(=O)[C@@H]2CCCN2S(=O)(=O)c2cc(Cl)cc(Cl)c2)C(=O)O)cc1
10.05	NC(=O)c1ccccc1-c1ccc(C[C@H](NC(=O)[C@@H]2CCCN2S(=O)(=O)c2cc(Cl)cc(Cl)c2)C(=O)O)cc1
8.99	O=C(O)[C@H](Cc1ccc(-c2ccccc2F)cc1)NC(=O)[C@@H]1CCCN1S(=O)(=O)c1cc(Cl)cc(Cl)c1
